Measured values taken from patent US7122541B2, “Methods of inhibiting metastases” (Rhode Island Hospital, priority 2001, dated 2006).
“Also recorded” adds a separate entry of the source.

What was measured:
LS-180 cells [1] = assay: Flow cytometry (propidium iodide / BrdU) cell cycle and DNA content analysis; format: cell-based, human
Procedure: FIGS. 4A–D are histograms showing that Taurolidine induces apoptosis in human colon cancer cells. In FIGS. 4A–C, LS-180 cells were treated with 100, 200, and 400 μM concentrations of Taurolidine. After 24 hours the cells were harvested by trypsinization, labeled with propidium iodide, and their DNA content was measured by flow cytometry. The percentage of subdiploid DNA content, representing DNA degradation in apoptotic cells, is shown. […] LS-180 cells were treated with 100, 200, and 400 -μM concentrations of Taurolidine and harvested by trypsinization at 12, 24, and 36 hours. Caspase-3 activity was assessed by its ability to cleave the DEVD-pNA colorimetric substrate.
LS-180 cells were cultured in 100 mm Falcon plates (5×10^6 cells/plate) for 12 hours to become adherent. Cells were incubated for 12, 14 and 48 hours with complete medium (control) or 50, 100 and […] concentrations of Taurolidine. The cells were then treated with 10 μm bromodeoxyuridine (BrdU) for 30 minutes, and both floating and adherent cells were harvested for fixation in 70% ethanol. The DNA was denatured using 2N HCl and labeled with FITC-conjugated anti-BrdU antibody (anti-bromodeoxyuridine-fluorescein monoclonal antibody; Roche, Indianapolis, Ind.). Before analysis by flow cytometry the cells were treated with ribonuclease (Dnase-free ribonuclease, Roche, Indianapolis, Ind.) and propidium iodide (Sigma, St. Louis, Mo.). FACs analysis was performed on a FACscan flow cytometer (Becton Dickinson, N.J.).

caspase-3 = assay: Caspase-3 colorimetric assay (DEVD-pNA substrate); format: cell-based, human
Procedure: To measure caspase activity, cells were incubated in six-well Falcon plates (1×10^6 cells/well) and harvested by trypsinization. The cells were then pelleted and lysed as per the manufacturer's recommendation (MBL, Nagoya, Japan) and the cytosolic protein concentration was quantified using a BCA protein assay reagent (Pierce, Rockford, Ill.). The caspase-3 assay was performed in a 96-well microtiter plate using 100 μg of protein and 5 μl of 4 mM DEVD-pNA Substrate (CPP32/caspase-3 Colorimetric Protease Assay Kit; MBL, Nagoya, Japan). The protein and reagent were then incubated for 2 hours at 37° C. A background reading from cell lysates and buffer without DEVD-pNA substrate was subtracted from samples; the assay was performed in triplicate. Samples were read at 405 nm in a microtiter plate reader.
Caspase Inhibitor I (Z-VAD-fink; z-Val-Ala-Asp(OMe)-CH2F, Calbiochem; La Jolla, Calif.) was used from a 21 mM stock in DMSO stored at −20° C. until use and then diluted into tissue culture medium immediately prior to its application. After a 2-hour incubation with the caspase inhibitor, cells were treated with Taurolidine. […] Untreated cells received an equivalent dilution of DMSO.

LS-180 cells [2] = assay: WST-8 tetrazolium cell number assay; details: dose-dependent; concentration not given
LS-180 cells [3] = assay: Light microscopy / Hoechst 33258 staining for apoptotic morphology; format: cell-based, human; details: even at 400 μm; light microscopy or Hoechst 33258
LS-180 cells [4] = assay: Lactate dehydrogenase (LDH) release cytotoxicity assay; format: cell-based, human; details: 100, 200 and 400 μM, 24 hours
Procedure: (§1) Cytotoxicity was quantified using a standard lactate dehydrogenase cytotoxicity assay (Cytotoxicity Detection Kit, Roche). LS-180 cells (2.5×10^5 cell/well) were cultured in Falcon 96-well microtiter plates in a humidified incubator at 37° C., 5% CO2. […] Triton X-100 (1% final concentration) was used to lyse cells and determine the maximum release of LDH enzyme (high control). Cytotoxicity was determined as per the manufacturer's protocol, and the absorbance was measured at 490 nm in a microtiter plate reader.
(§2) Cytotoxicity was assessed by measuring lactate dehyhdrogenase (LDH) activity released from the cytosol of damaged cells. […] Taurolidine, even at a 400 μm concentration, produced minimal cytotoxic effects on LS-180 cells. […] This is in contradistinction to previously reported in vitro studies of Taurolidine on malignant cell lines.

[5] = as above; format: cell-based, human; details: human, LS-180 cells
Procedure: as §1, §2

LS-180 cells [6] = assay: MTT cell proliferation assay; format: cell-based, human
Procedure: (§3) Cell proliferation was assessed using a standard MTT (3,(4,5-dimethylthiazol-2yl)2,5-diphenyltetrazolium bromide; Sigma, St. Louis, Mo.) dye at 570 nm. Cells were into seeded in 96-well microtiter plates (2×10^5 cells/well) using 200 μl of medium. After a 12 hour incubation, Taurolidine was applied for a period of 6, 9, 12, 24 or 48 hours. At each time point 20 μl of MTT (5 mg/ml) was added and the cells were incubated at 37° C. for an additional 30 minutes. The medium was removed and the dye was eluted using acidic isopropyl alcohol (0.04N HCl). Cell viability was measured using crystal violet dye. Cells were seeded and treated with Taurolidine as described for the MTT assay. The medium was then removed and the cells were stained and fixed using a crystal violet staining solution containing 0.75% Crystal violet, 50% EtOH, 0.25% NaCl, and 1.75% formaldehyde for 10 minutes at room temperature. After staining and fixation the cells were rinsed with water and air-dried. The crystal violet dye was eluted using a 1% SDS in PBS solution and the absorbance was measured at 540 nm in a microtiter plate reader.
(§4) The human LS-180 colon cancer cell line was incubated with 25, 50, 75, and 100 μm concentrations of Taurolidine, and an MTT assay was performed at 6, 9, 12, 24 and 48 hours after Taurolidine administration. An accompanying crystal violet assay was performed under the same conditions. […] Flow cytometry was also performed using bromodeoxyuridine (BrdU) to help quantify the proportion of cells in S phase and evaluate cell proliferation.

[7] = test system: LS-180 hepatic metastases; assay: Liver metastases model: splenic injection of LS-180 cells in nude mice, IP treatment; format: in vivo; details: for Serum CEA: mean ± SE, n = 20, after 3 weeks IP Taurolidine; for reduction in serum CEA levels vs control: 3 weeks IP therapy; for reduction in liver weight vs control: daily IP, 5 days/week, 3 weeks
Procedure: General anesthesia was induced using 400 μl choral hydrate (2%). Using sterile conditions, a vertical paramedian incision was used to expose the spleen. An intrasplenic injection of 1×10^5 tumor cells in 0.4 ml of serum free medium was performed, followed by splenectomy using hemoclips for vascular control. The incision was then closed using surgical staples. Beginning post injections days 2 or 5, mice received IP injections of 0.45% normal saline (n=10 per group) or Taurolidine (n=20 per group). Taurolidine (Boehringer Ingelheim, Germany) was given as a daily 0.5 ml IP injection of 2% solution ([…]) for 5 consecutive days per week for a total of 3 weeks. The day following the last treatment of Taurolidine or 0.45% NS, the mice were sacrificed and examined for gross tumor. Blood was drawn from the right ventricle, immediately centrifuged, and serum collected for CEA assays. The livers were weighed and fixed in HistoFix and representative sections taken for H&E microscopic examination. In addition, 9 mice (n=3 per group) were used to study the tumor model. At days 5, 10 and 15, mice that received a splenic tumor cell injection without any further intervention were sacrificed to assess tumor burden at varying time points. The livers were assessed for gross tumor and submitted in toto for histologic examination.

LS-180 cells [8] = assay: Crystal violet cell viability / adherent cell assay; format: cell-based, human
Procedure: as §3, §4

[9] = dose-dependent, concentration not given
[10] = treatment begun 2 days after splenic tumor injection
[11] = treatment begun 5 days after splenic tumor injection

With `O=S1(=O)CCN(CN2CCS(=O)(=O)NC2)CN1` [Taurolidine, bis(1,1-dioxoperhydro-1,2,4-thiadiazinyl-4)methane] as the compound, how does the “sub-G1 peak by propidium iodide flow cytometry” value (LS-180 cells [1]; 50 and 100 μm, 24 hours) read?
Its value is “failed to demonstrate a sub-GI peak; also recorded: failed to demonstrate a sub-G1 peak”.

What about the “sub-diploid DNA peak (DNA degradation in apoptotic cells)” value (LS-180 cells [1]; 100, 200 and 400 μM, 24 hours) of the same compound?
The value was “dose dependent increase”.

And the “cell cycle progression / proliferation (flow cytometry, BrdU)” value (LS-180 cells [1]; treated vs untreated cells, 50 and 100 μm)?
Its value is “no significant change in cell cycle progression; also recorded: no significant change in proliferation or cell cycle”.

And the caspase-3 activity (caspase-3; 100, 200 and 400 μM, 12, 24 and 36 hours)?
The caspase-3 activity was “dose-dependent increase; also recorded: dose dependent increase”.

What about the “decrease in tumor cell viability (WST-8 assay)” value (LS-180 cells [2]) of the same compound?
The value was 85%.

And the apoptotic morphology (LS-180 cells [3])?
The apoptotic morphology was “failed to demonstrate cell shrinkage, cytoplasmic condensation, nuclear fragmentation or blebbing”.

And the “cytolysis (culture medium LDH activity)” value (LS-180 cells [4])?
The value was “no significant cytolysis”.

And the cytotoxicity ([5]; 50, 100 and 400 μm, 12 or 24 hours, read-out: percent cytotoxicity (LDH release), all cases)?
The cytotoxicity was under 2%.

What about the cytotoxicity at 24 h, 50 µM ([5]; 50 μm, 24 hours, read-out: percent cytotoxicity (LDH release)) of the same compound?
Its cytotoxicity at 24 h, 50 µM is -0.07%.

What about the cytotoxicity at 24 h, 100 µM ([5]; 100 μm, 24 hours, read-out: percent cytotoxicity (LDH release)) of the same compound?
Its cytotoxicity at 24 h, 100 µM is 0.15%.

What about the cytotoxicity at 24 h, 400 µM ([5]; 400 μm, 24 hours, read-out: percent cytotoxicity (LDH release)) of the same compound?
The cytotoxicity at 24 h, 400 µM was 1.58%.

And the “decrease by MTT assay” value (LS-180 cells [6]; 100 μm Taurolidine, present as early as 9 hours after exposure)?
The value was 40–50%.

What about the “reduction in cell number (MTT assay)” value (LS-180 cells [6]; 100 μm, after 24 hours) of the same compound?
The value was 40–50%.

What about the “decrease in adherent tumor cells (MTT assay)” value (LS-180 cells [6]; [9]) of the same compound?
The value was 60%.

What about the “tolerability / deaths during therapy” value ([7]; 10-mg per day IP, five consecutive days x 3 weeks) of the same compound?
The value was “well tolerated, resulting in no deaths of animals; also recorded: all mice tolerated the full 3-week course of treatment”.

And the “Serum CEA” value ([7]; Day 2 group)?
Its value is 7.73 ± 0.52 ng/mL.

What about the “Serum CEA” value ([7]; Day 5 group) of the same compound?
The value was 11.88 ± 1.97 ng/mL.

What about the “gross hepatic tumor burden vs control” value ([7]; daily IP Taurolidine for 3 weeks, begun day 2 or 5) of the same compound?
The value was “dramatic reduction in hepatic tumor involvement; also recorded: dramatic reduction of tumor burden; also recorded: striking decrease in tumor burden; also recorded: marked reduction in tumor burden; also recorded: marked decrease in tumor burden”.

And the “reduction in serum CEA levels vs control” value [7, 10]?
The value was 69%.

What about the “reduction in liver weight vs control” value [7, 10] of the same compound?
The value was 18%.

What about the “reduction in serum CEA levels vs control” value [7, 11] of the same compound?
The value was 78%.

What about the “reduction in liver weight vs control” value [7, 11] of the same compound?
Its value is 22%.

And the “cell adherence (crystal violet assay)” value (LS-180 cells [8]; 10-400 μM Taurolidine)?
Its value is “loss of cell adherence”.

What about the “reduction in cell number (crystal violet assay)” value (LS-180 cells [8]; 100 μm, after 24 hours) of the same compound?
Its value is 40–50%.

What about the “decrease in adherent tumor cells (crystal violet assay)” value (LS-180 cells [8]; [9]) of the same compound?
Its value is 60%.

And the “decrease in tumor cell viability (crystal violet assay)” value (LS-180 cells [8]; [9])?
The value was 85%.

Which “caspase-3 activity in Taurolidine-treated cells after caspase inhibition” value (caspase-3; 50 μM Z-VAD-fmk before 100, 200, 400 μM Taurolidine, vs untreated LS-180 cells) does the source give for z-Val-Ala-Asp(OMe)-CH2F [Z-VAD-fmk] here?
The value was “no significant increase in caspase-3 activity”.

And the “loss of cell adherence of Taurolidine-treated cells after caspase inhibition (crystal violet)” value (LS-180 cells [8]; 50-uM Z-VAD-fmk before Taurolidine)?
Its value is “not affected”.
